Patent US9598391B2, “Substituted chroman compounds as calcium sensing receptor modulators” (LUPIN LIMITED, priority 2012, dated 2017)
Counter-ions that a name gives are not always drawn.

Molecular target: T1, Calcium Sensing Receptor (CaSR) (Homo sapiens, UniProt P41180)
T1 construct: expressed in transfected cells
T1 sequence (P41180 20-1078): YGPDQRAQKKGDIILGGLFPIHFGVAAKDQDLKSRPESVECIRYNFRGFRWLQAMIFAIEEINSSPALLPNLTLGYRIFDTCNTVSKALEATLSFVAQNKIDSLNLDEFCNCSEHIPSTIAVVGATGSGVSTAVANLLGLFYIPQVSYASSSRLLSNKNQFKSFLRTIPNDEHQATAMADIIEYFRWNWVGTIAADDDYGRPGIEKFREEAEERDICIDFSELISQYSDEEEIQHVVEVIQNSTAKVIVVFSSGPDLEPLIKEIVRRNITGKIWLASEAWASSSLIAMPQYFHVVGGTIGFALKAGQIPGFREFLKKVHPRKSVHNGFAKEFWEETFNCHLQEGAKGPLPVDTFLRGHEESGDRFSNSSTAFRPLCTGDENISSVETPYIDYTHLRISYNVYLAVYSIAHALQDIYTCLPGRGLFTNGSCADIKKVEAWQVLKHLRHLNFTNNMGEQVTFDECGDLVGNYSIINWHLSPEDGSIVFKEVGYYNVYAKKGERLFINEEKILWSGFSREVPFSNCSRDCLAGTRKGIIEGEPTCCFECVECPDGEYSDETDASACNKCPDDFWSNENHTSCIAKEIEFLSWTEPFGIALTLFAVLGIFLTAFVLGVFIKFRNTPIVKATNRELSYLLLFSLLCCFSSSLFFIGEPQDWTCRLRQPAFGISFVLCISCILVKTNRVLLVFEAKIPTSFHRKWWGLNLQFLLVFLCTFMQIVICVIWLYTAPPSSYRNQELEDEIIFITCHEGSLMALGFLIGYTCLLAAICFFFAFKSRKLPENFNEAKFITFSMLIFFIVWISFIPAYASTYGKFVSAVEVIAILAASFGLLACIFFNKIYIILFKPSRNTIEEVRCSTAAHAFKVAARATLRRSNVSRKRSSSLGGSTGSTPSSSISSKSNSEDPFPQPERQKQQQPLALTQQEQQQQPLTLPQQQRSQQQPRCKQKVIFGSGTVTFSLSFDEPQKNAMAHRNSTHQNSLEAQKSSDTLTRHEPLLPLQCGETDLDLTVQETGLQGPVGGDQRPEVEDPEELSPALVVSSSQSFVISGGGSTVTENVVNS
Assay: In-vitro assay of calcimimetics through modulation of Calcium Sensing Receptor (intracellular calcium, FLIPR)
Format: cell-based
Conditions: HEK293 cells stably expressing hCaSR, increase in intracellular calcium, Fluo4NW dye, 0.3 mM CaCl2, 8-point assay, read-out: EC50 Range
Experimental: In-vitro assay method of Calcimimetics through modulation of Calcium Sensing Receptor (CaSR):
The ability of the compounds to modulate Calcium sensing receptor is determined by measuring an increase in intracellular calcium [Ca^2+]i. Stably transfected HEK293 cells expressing hCaSR_pTriEx-3 hygro vector are developed. Cells are grown overnight on a 96-well plate to 80% confluency in Ham's F12 containing 20% FBS at 37° C., 5% CO2. Subsequently, cells are washed extensively with 20 mM HEPES buffer containing 126 mM […], 1 mM MgCl2 and 4 mM KCl to remove serum components that might interfere with the assay. Cells are loaded with calcium sensing Fluo4NW dye in HEPES base buffer containing 0.1% BSA and 1 mg/ml glucose for 30 minutes to measure changes in intracellular calcium. The activities of the compounds are measured in FLIPR using 0.3 mM CaCl2 in 20 mM HEPES base buffer. The effectiveness of the compound to modulate receptor activity is determined by calculating the EC50 responses for that compound in an 8-point assay and plotted using GraphPad Prism 5.

EC50	Structure (SMILES)
20 to 50 nM	C[C@@H](NC[C@H]1C[C@@H](c2cccc(OC(C)(C)C(=O)O)c2)c2ccccc2O1)c1cccc2ccccc12 [Example 97, 2-Methyl-2-(3-((2R,4S)-2-((((R)-1-(naphthalen-1-yl)ethyl)amino)methyl)chroman-4-yl)phenoxy)propanoic acid hydrochloride]
50 to 200 nM	C[C@@H](NC[C@H]1C[C@H](c2ccc(C(=O)O)cc2)c2ccccc2O1)c1cccc2ccccc12 [Example 98a, 4-((2R,4R)-2-((((R)-1-(Naphthalen-1-yl)ethyl)amino)methyl)chroman-4-yl)benzoic acid hydrochloride]
20 to 50 nM	CCN(CC)C(=O)c1cc([C@@H]2C[C@H](CN[C@H](C)c3cccc4ccccc34)Oc3ccccc32)ccc1C [Example 146, N,N-Diethyl-2-methyl-5-((2R,4S)-2-((((R)-1-(naphthalen-1-yl)ethyl)amino)methyl)chroman-4-yl)benzamide hydrochloride]
< 20 nM	Cc1ccc([C@@H]2C[C@H](CN[C@H](C)c3cccc4ccccc34)Oc3ccccc32)cc1OCC(=O)O [Example 91, 2-(2-Methyl-5-((2R,4S)-2-((((R)-1-(naphthalen-1-yl)ethyl)amino)methyl)chroman-4-yl)phenoxy)acetic acid hydrochloride]
50 to 200 nM	C[C@@H](NC[C@H]1C[C@@H](c2ccc(C(C)(C)C(=O)O)cc2)c2ccccc2O1)c1cccc2ccccc12 [Example 108b, 2-Methyl-2-(4-((2R,4S)-2-((((R)-1-(naphthalen-1-yl)ethyl)amino)methyl)chroman-4-yl)phenyl)propanoic acid hydrochloride]
< 20 nM	COc1cc(C(=O)O)ccc1[C@@H]1C[C@H](CN[C@H](C)c2cccc3ccccc23)Oc2ccccc21 [Example 102b, 3-Methoxy-4-((2R,4S)-2-((((R)-1-(naphthalen-1-yl)ethyl)amino)methyl)chroman-4-yl)benzoic acid hydrochloride]
